The results in this text go back to US20090291964A1, “Potentiators of Antibacterial Activity” (priority 2003, published 2009).

For experiment [1], the system named is S. aureus ATCC 29213. In words: MIC by NCCLS microdilution, antibacterial agents with and without EPI. Conditions: S. aureus ATCC 29213. It is filed as cell-based. Here is the method: 3% sterile laked horse blood (Quad Five, Ryegate, Mont.) was added to assays for E. faecalis and S. Pneumoniae. A final concentration of 1% DMSO was present in all assays. […]
A-106 and C-9 were tested at their respective MECs in combination with a variety of different classes of antibiotics against S. aureus ATCC 29213 (Table 2).
(In general: Broth dilution looks for growth in wells or tubes with falling amounts of substance.)

For experiment [2], the system named is S. aureus ATCC 29213. In words: Minimal effective concentration (MEC) of EPI for EtBr. Conditions: S. aureus ATCC 29213; lowest amount of EPI which produces the maximum effect on the MIC of ethidium bromide. It is filed as cell-based. Here is the method:
The MEC was determined as the minimal concentration of EPI that produced the maximal reduction in substrate MIC.
The minimum effective concentration (MEC) for inhibition of EtBr efflux was determined in S. aureus, E. faecalis and S. pneumoniae for A-106 and C-9; reserpine was used as a comparator (Table 1).

Where [3] appears, read: EPIs used at the MEC, except VX-710 at 100 μg/ml.

As to `COc1cc(C(=O)C(=O)N2CCCCC2C(=O)OC(CCCc2ccccc2)CCCc2cccnc2)cc(OC)c1OC` (stereo not shown) [VRT-010367], the “MIC of EPI” value with S. aureus ATCC 29213 [1] (EPI alone) is above 50 µg/mL. For the same molecule, in the experiment on S. aureus ATCC 29213 [1] (setting [3]), the “Fold-reduction in EtBr MIC” value came out at 2 and the “MIC of EtBr with EPI” value came to 3.1 µg/mL. The “MEC of EPI” value in the experiment with S. aureus ATCC 29213 [2] worked out at 1.6 µg/mL.
